Converted amounts (≈) assume the structure as drawn.
System: Mycobacterium tuberculosis H37Rv strain
Test: Alamar blue (MABA) test, MIC on Mycobacterium tuberculosis H37Rv
Type: cell-based
Conditions: H37RV, read-out: fluorimetric MIC (minimum inhibitory concentration) with respect to the growth of Mycobacterium tuberculosis
With `O=C(NCCc1cccc(Cl)c1)c1nc2cc(C(F)(F)F)cc([N+](=O)[O-])c2s1` [Compound 16, N-[2-(3-chlorophenyl)-ethyl]-7-nitro-5-(trifluoromethyl)-1,3-benzothiazole-2-carboxamide] the MIC was < 0.5 µM.
For `O=C(NCCc1ccccc1O)c1nc2cc(C(F)(F)F)cc([N+](=O)[O-])c2s1` [Compound 17, N-[2-(2-hydroxyphenyl)ethyl]-7-nitro-5-(trifluoromethyl)-1,3-benzothiazole-2-carboxamide], the MIC was < 0.5 µM.
For `O=C(NCCc1ccc(O)cc1)c1nc2cc(C(F)(F)F)cc([N+](=O)[O-])c2s1` [Compound 18, N-[2-(4-hydroxyphenyl)ethyl]-7-nitro-5-(trifluoromethyl)-1,3-benzothiazole-2-carboxamide], the MIC was < 0.5 µM.
With `O=C(NCCc1nc2ccccc2o1)c1nc2cc(C(F)(F)F)cc([N+](=O)[O-])c2s1` [Compound 38, N-[2-(1,3-benzoxazol-2-yl)ethyl]-7-nitro-5-(trifluoromethyl)-1,3-benzothiazole-2-carboxamide] the MIC was < 0.5 µM.

Same assay, conditions: in vitro, Alamar blue (MABA), H37Rv strain, fluorescence reading, read-out: fluorimetric MIC (minimum inhibitory concentration) with respect to the growth of Mycobacterium tuberculosis
In the case of `O=C(NCCC1CCOCC1)c1nc2cc(C(F)(F)F)cc([N+](=O)[O-])c2s1` [Compound 2, 7-nitro-N-[2-(tetrahydro-2H-pyran-4-yl)ethyl]-5-(trifluoromethyl)-1,3-benzothiazole-2-carboxamide], the MIC is reported as < 0.5 µM.
In the case of `COc1ccc(CCNC(=O)c2nc3cc(C(F)(F)F)cc([N+](=O)[O-])c3s2)cc1` [Compound 7, N-[2-(4-methoxyphenyl)ethyl]-7-nitro-5-(trifluoromethyl)-1,3-benzothiazole-2-carboxamide], the MIC is reported as < 0.5 µM.
With `O=C(NCCN1CCc2ccccc2C1)c1nc2cc(C(F)(F)F)cc([N+](=O)[O-])c2s1` [Compound 9, N-[2-(1,2,3,4-tetrahydroisoquinolin-2(1H)-yl)ethyl]-7-nitro-5-(trifluoromethyl)-1,3-benzothiazole-2-carboxamide] the MIC was < 0.5 µM.
For `O=C(NCCc1ccc(F)cc1)c1nc2cc(C(F)(F)F)cc([N+](=O)[O-])c2s1` [Compound 14, N-[2-(4-fluorophenyl)ethyl]-7-nitro-5-(trifluoromethyl)-1,3-benzothiazole-2-carboxamide], the MIC was < 0.5 µM.
In the case of `COc1ccc(CCNC(=O)c2nc3cc(C(F)(F)F)cc([N+](=O)[O-])c3s2)cc1OC` [Compound 15, N-[2-(3,4-dimethoxyphenyl)ethyl]-7-nitro-5-(trifluoromethyl)-1,3-benzothiazole-2-carboxamide], the MIC is reported as < 0.5 µM.
For `O=C(NCCNc1ccccn1)c1nc2cc(C(F)(F)F)cc([N+](=O)[O-])c2s1` [Compound 21, 7-nitro-N-[2-(pyridin-2-ylamino)ethyl]-5-(trifluoromethyl)-1,3-benzothiazole-2-carboxamide], the MIC was < 0.5 µM.
For `O=C(NCCN1CCSCC1)c1nc2cc(C(F)(F)F)cc([N+](=O)[O-])c2s1` [Compound 22, 7-nitro-N-[2-thiomorpholin-4-ylethyl)-5-(trifluoromethyl)-1,3-benzothiazole-2-carboxamide], the MIC was < 0.5 µM.
In the case of `Cc1cccnc1CCNC(=O)c1nc2cc(C(F)(F)F)cc([N+](=O)[O-])c2s1` [Compound 25, N-[2-(3-methylpyridin-2-yl)ethyl]-7-nitro-5-(trifluoromethyl)-1,3-benzothiazole-2-carboxamide], the MIC is reported as < 0.5 µM.
In the case of `O=C(NCC(c1ccccc1)N1CCOCC1)c1nc2cc(C(F)(F)F)cc([N+](=O)[O-])c2s1` (stereo not drawn) [Compound 26, N-(2-morpholin-4-yl-2-phenylethyl)-7-nitro-5-(trifluoromethyl)-1,3-benzothiazole-2-carboxamide], the MIC is reported as < 0.5 µM.
With `CC1(C)CC(CCNC(=O)c2nc3cc(C(F)(F)F)cc([N+](=O)[O-])c3s2)(c2ccccc2)CCO1` (stereo not drawn) [Compound 27, N-[2-(2,2-dimethyl-4-phenyltetrahydro-2H-pyran-4-yl)ethyl]-7-nitro-5-(trifluoromethyl)-1,3-benzothiazole-2-carboxamide] the MIC was < 0.5 µM.
In the case of `Cc1nc(CCNC(=O)c2nc3cc(C(F)(F)F)cc([N+](=O)[O-])c3s2)sc1Cl` [Compound 36, N-[2-(5-chloro-4-methyl-1,3-thiazol-2-yl)ethyl]-7-nitro-5-(trifluoromethyl)-1,3-benzothiazole-2-carboxamide], the MIC is reported as < 0.5 µM.
With `CCc1csc(CCNC(=O)c2nc3cc(C(F)(F)F)cc([N+](=O)[O-])c3s2)n1` [Compound 39, N-[2-(4-ethyl-1,3-thiazol-2-yl)ethyl]-7-nitro-5-(trifluoromethyl)-1,3-benzothiazole-2-carboxamide] the MIC was < 0.5 µM.
With `Cc1nc(CCNC(=O)c2nc3cc(C(F)(F)F)cc([N+](=O)[O-])c3s2)sc1C` [Compound 40, N-[2-(4,5-dimethyl-1,3-thiazol-2-yl)ethyl]-7-nitro-5-(trifluoromethyl)-1,3-benzothiazole-2-carboxamide] the MIC was < 0.5 µM.
For `NNC(=O)c1ccncc1` [isoniazid, reference compound], the MIC was 0.36 µM (≈ 0.0494 µg/mL).
`CO[C@H]1/C=C/O[C@@]2(C)Oc3c(C)c(O)c4c(O)c(c(/C=N/N5CCN(C)CC5)c(O)c4c3C2=O)NC(=O)/C(C)=C\C=C\[C@H](C)[C@H](O)[C@@H](C)[C@@H](O)[C@@H](C)[C@H](OC(C)=O)[C@@H]1C` [rifampicin, reference compound] gave an MIC of 0.12 µM (≈ 0.0988 µg/mL).

System: not given
Test: not given
Conditions: not given
`O=C(NCCc1ccc(Cl)cc1)c1nc2cc(C(F)(F)F)cc([N+](=O)[O-])c2s1` showed a melting point of 140 °C.
`O=C(NCCC1CCOCC1)c1nc2cc(C(F)(F)F)cc([N+](=O)[O-])c2s1` [Compound 2, 7-nitro-N-[2-(tetrahydro-2H-pyran-4-yl)ethyl]-5-(trifluoromethyl)-1,3-benzothiazole-2-carboxamide] gave a melting point of 154 °C.
